Experimental data as given in patent publication US20080293699A1, “Inhibitors of thapsigargin-induced cell death” (priority 2007, published 2008).
Like-named read-outs stand apart in the source and are kept apart here.

Test system: CSM14.1 cells
Assay: Primary HTS assay: ATP content (ATPlite) of undifferentiated CSM14.1 cells challenged with thapsigargin
Type: cell-based, rat
Conditions: thapsigargin-induced death of undifferentiated CSM14.1, ATP content
From the text: For convenience, and because transient reductions in temperature that might be associated with large screening experiments could restore Large T activity, we elected to develop our HTS using undifferentiated CSM14.1 cells, with the plan to then confirm hits using differentiated cells. For monitoring cell death, we used a commercially available bioluminescence reagent that determines intracellular ATP content, without requirement for complicated cell processing steps (ATPlite, Perkin Elmer). Thus, ATP was used as a surrogate indicator of cell survival for the primary assay.
Undifferentiated or differentiated CSM14.1 cells were plated at a density of 3,000 cells/well in 40 μL DMEM medium (containing 10% serum, 1 mM L-glutamine, and antibiotics) in 96 well flat-bottom microtiter plates composed of polystrene (Greiner Bio One, polystyrene, white wall, flat bottom, lumitrac, high binding). After overnight incubation at 32° C., DMSO (0.5% v/v) or 100 uM Salubrinal (Sal) in DMSO was delivered. After 2 hrs, 5 uL of a stock solution of 150 uM TG in DMEM medium containing 0.75% (v:v) DMSO to achieve a final concentration of approximately 15 uM. After culturing for 24 hrs, cellular ATP content was measured by addition of 20 uL per well of ATPlite solution (Perkin-Elmer), and then the plates were incubated for three minutes at room temperature, before reading with a Microplate Luminometer (BD Pharmingen Moonlight model 3096).
To determine the reproducibility of the ATP content assay, we prepared a 96-well plate in which half the wells received TG plus DMSO (assay minimum) and half received TG plus Salubrinal (assay maximum), then performed the ATP content studies using undifferentiated CSM14.1 cells (FIG. 6). CSM14.1 cells were cultured overnight at 3,000 cells per well in 96-well flat-bottom plates, then either DMSO (0.5% final concentration) or Salubrinal (100 μM) in DMSO (0.5% final concentration) was added to half the well (48 each). After two hrs, TG was added to all wells (15 μM final). Cells were cultured for 24 hrs, then the ATP content was measured using the ATPlite luminogenic assay. We then adapted this assay to the high-throughput environment, using a Biomex™ FX liquid handler for automated dispensing of assay components into microwells of 96-well plates. First, undifferentiated CSM14.1 cells were grown at 32° C. in DMEM medium supplemented with 10% fetal bovine serum (FBS), 1% penicillin/streptomycin, and 1% L-glutamine in 150 mm×25 mm polystyrene culture dishes to produce approximately 3×10^6 cells. Second, CSM14.1 cells were recovered from cultures by trypsinization when at 80-90% confluence, and suspended at 7.5×10^4 cells/mL in DMEM medium containing 2% FBS, 1 mM L-glutamine, and antibiotics 100 IU penicillin 100 μg/ml streptomycin. Third, the cell suspension was then delivered at 40 μL per well of 96-well plastic microtiter plates (Greiner Bio One, polystyrene, white wall, flat bottom, lumitrac, high binding, cat #655074), and the plates were cultured overnight at 32° C. in a humidified atmosphere in 95% air: 5% CO2. Fourth, using the automated liquid handler, 5 μL of test compounds in 10% DMSO were added to wells in columns 2-11 of the 96-well plates (leaving columns 1 and 12 intact) to achieve an approximate final concentration of 15 μg/mL test compound and a final concentration of 1% DMSO. Fifth, 5 μL of 1 mM Salubrinal in a solution of 10% DMSO:90% DMEM was added to wells of column 1/rows A-D of each plate, while 5 μL of 10% DMSO:90% DMEM solution was added to wells corresponding to column 1/rows E-H and to all wells in column 12. Sixth, the plates were returned to culture.

[1] = one value given, read-out: IC50
[2] = first assay, read-out: IC50 (μM), first value
[3] = second assay (value in bold), read-out: IC50 (μM), value from a second assay
[4] = Rattus norvegicus, one value given, read-out: IC50

**Q.** Which IC50 [1] does the source give for `CCN(CC)c1ccc(C2=Nc3ccccc3NC3=C2C(=O)CC(c2ccc(Cl)cc2)C3)cc1` (racemic) [MLS-0292126] here?
**A.** The IC50 was 16.5 µM.

**Q.** How did the IC50 [1] turn out when `COc1ccc(C2CC(=O)C3=C(C2)Nc2ccccc2NC3c2cccc(O)c2)cc1OC` (stereo not drawn) [Compound 3192-5300] was run?
**A.** The IC50 was 53.5 ± 3.45 µM.

**Q.** For `CCOc1ccc(C2CC(=O)C3=C(C2)Nc2ccccc2NC3c2cc(F)ccc2Cl)cc1OC` (stereo not drawn) [Compound 5991-0620], which IC50 [1] is on record?
**A.** The IC50 was over 200 µM.

**Q.** How did the IC50 [1] turn out when `COc1ccccc1CN1CCN(C(=O)c2cc(OC)c(OC)c(OC)c2)CC1` [Compound 5397316] was run?
**A.** Its IC50 is over 200 µM.

**Q.** `CCn1c2ccccc2c2cc(CN3CCN(C(=O)c4cc(OC)c(OC)c(OC)c4)CC3)ccc21` [Compound 5397372] was tested. Which IC50 [2] did it give?
**A.** The IC50 was 18.9 ± 0.568 µM.

**Q.** What about the IC50 [3] of the same compound?
**A.** Its IC50 is 13.5 ± 2.02 µM.

**Q.** `O=C(C(c1ccccc1)c1ccccc1)N1CCN(Cc2ccccc2[N+](=O)[O-])CC1` [Compound 5948365] was tested. Which IC50 [1] did it give?
**A.** Its IC50 is 19.5 µM.

**Q.** Which IC50 [2] does the source give for `CCn1c2ccccc2c2cc(CN3CCN(C(=O)c4cccs4)CC3)ccc21` [Compound 5951613] here?
**A.** Its IC50 is 16.74 ± 0.158 µM.

**Q.** What about the IC50 [3] of the same compound?
**A.** The IC50 was 12.7 ± 1.11 µM.

**Q.** Which results are given for `COc1ccc(CN2CCN(C(=O)c3ccc(-c4ccccc4)cc3)CC2)c(OC)c1` [Compound 5955734]?
**A.** IC50 [2]: 23.8 µM; IC50 [3]: 16.5 ± 1.47 µM

**Q.** Which results are given for `CSc1ccc(C2Nc3ccccc3NC3=C2C(=O)CC(c2ccccc2)C3)cc1` (stereo not drawn) [Compound 5963958]?
**A.** IC50 [2]: 18.6 ± 9.14 µM; IC50 [1]: 12.5 ± 0.179 µM; IC50 [3]: 12.5 ± 0.179 µM

**Q.** How did the IC50 [4] turn out when `COc1ccc(C2CC(=O)C3=C(C2)Nc2ccccc2NC3c2cccc(Cl)c2)cc1` (stereo not drawn) [Compound 5969327, 11-(3-chlorophenyl)-3-(4-methoxyphenyl)-2,3,4,5,10,11-hexahydro-1H-dibenzo[b,e][1,4]diazepin-1-one] was run?
**A.** The IC50 was 21.7 ± 1.07 µM.

**Q.** `CCN(CC)c1ccc(C2Nc3ccccc3NC3=C2C(=O)CC(c2ccc(OC)cc2)C3)cc1` (stereo not drawn) [Compound 5969590] was tested. Which IC50 [1] did it give?
**A.** The IC50 was 11.4 ± 1.49 µM.

**Q.** What does the source list for `COc1ccc(Br)cc1CN1CCN(C(=O)c2ccc(-c3ccccc3)cc2)CC1` [Compound 5990041]?
**A.** IC50 [2]: 12.8 ± 0.318 µM; IC50 [3]: 14.2 ± 1.2 µM

**Q.** How did the IC50 [4] turn out when `CCOc1ccc(CN2CCN(C(=O)c3ccc(-c4ccccc4)cc3)CC2)cc1` [Compound 5990076, 1-(4-biphenylylcarbonyl)-4-(4-ethoxybenzyl)piperazine] was run?
**A.** Its IC50 is over 200 µM.

**Q.** What does the source list for `COc1ccc(OC)c(CN2CCN(C(=O)c3ccc(-c4ccccc4)cc3)CC2)c1` [Compound 5990137]?
**A.** IC50 [2]: 17.5 ± 0.675 µM; IC50 [3]: 13.9 ± 1.06 µM

**Q.** `COc1ccccc1CN1CCN(C(=O)c2ccc(-c3ccccc3)cc2)CC1` [Compound 5996087, 1-(4-biphenylylcarbonyl)-4-(2-methoxybenzyl)piperazine] was tested. Which IC50 [4] did it give?
**A.** The IC50 was 25 to 50 µM.

**Q.** With `CCn1c2ccccc2c2cc(CN3CCN(C(=O)c4ccc(OC)c(OC)c4)CC3)ccc21` [Compound 6033352] as the compound, how does the IC50 [2] read?
**A.** The IC50 was 13.4 ± 0.248 µM.

**Q.** And the IC50 [3]?
**A.** Its IC50 is 13.8 ± 0.548 µM.

**Q.** What does the source list for `CCn1c2ccccc2c2cc(CN3CCN(C(=O)c4ccc([N+](=O)[O-])cc4)CC3)ccc21` [Compound 6034674]?
**A.** IC50 [2]: 15 ± 0.495 µM; IC50 [3]: 11.5 ± 0.501 µM

**Q.** What does the source list for `COc1cccc(CN2CCN(C(=O)c3ccc(-c4ccccc4)cc3)CC2)c1OC` [Compound 6035098]?
**A.** IC50 [2]: 19.8 ± 0.721 µM; IC50 [3]: 16.6 ± 2.03 µM

**Q.** For `COc1ccc(C2CC(=O)C3=C(C2)Nc2ccccc2NC3c2ccccc2OC(C)C)cc1` (stereo not drawn) [Compound 6043556, 11-(2-isopropoxyphenyl)-3-(4-methoxyphenyl)-2,3,4,5,10,11-hexahydro-1H-dibenzo[b,e][1,4]diazepin-1-one], which IC50 [4] is on record?
**A.** Its IC50 is 24 ± 2.31 µM.

**Q.** With `COc1ccc(C2CC(=O)C3=C(C2)Nc2ccccc2NC3c2c(F)cccc2Cl)cc1` (stereo not drawn) [Compound 6044487] as the compound, how does the IC50 [1] read?
**A.** The IC50 was 15.3 ± 1.51 µM.

**Q.** What does the source list for `CCOc1cccc(C2Nc3ccccc3NC3=C2C(=O)CC(c2ccc(OC)cc2)C3)c1` (stereo not drawn) [Compound 6044673]?
**A.** IC50 [2]: 20.2 ± 0.781 µM; IC50 [1]: 21.2 ± 0.362 µM; IC50 [3]: 21.2 ± 0.362 µM

**Q.** For `COc1ccc(C2CC(=O)C3=C(C2)Nc2ccccc2NC3c2ccc(O)cc2)cc1` (stereo not drawn) [Compound 6045744, 11-(4-hydroxyphenyl)-3-(4-methoxyphenyl)-2,3,4,5,10,11-hexahydro-1H-dibenzo[b,e][1,4]diazepin-1-one], which IC50 [4] is on record?
**A.** The IC50 was over 200 µM.

**Q.** For `Cc1ccc(C2Nc3ccccc3NC3=C2C(=O)CC(c2ccc(Cl)cc2)C3)cc1` (stereo not drawn) [Compound 6047795], which IC50 [1] is on record?
**A.** The IC50 was 11 ± 1.04 µM.

**Q.** With `CC(C)Oc1ccccc1C1Nc2ccccc2NC2=C1C(=O)CC(c1ccc(Cl)cc1)C2` (stereo not drawn) [Compound 6047998] as the compound, how does the IC50 [1] read?
**A.** Its IC50 is 8.09 ± 0.832 µM.
